Measured values as given in patent US12390481B2, “Sialic acid compositions for the use of inhibiting and treating coronavirus infection” (LifeScience AS, priority 2020, dated 2025).

What was measured:
[1] = system: CoV-OC43; assay: in vitro inhibition of infection of cells with test virus CoV-OC43; format: cell-based; conditions: for infection of cells by CoV-OC43 at different concentrations: different dilutions of the sialic acid, two replicates, FIGS. 1 and 2
Method: FIG. 1 provides data from one replicate showing infection of cells by CoV-OC43 at different concentrations of either Neu5Ac or Neu5Gc.
FIG. 2 provides data from another replicate showing infection of cells by CoV-OC43 at different concentrations of either Neu5Ac or Neu5Gc.
FIG. 3 provides data from an experiment where inhibition of infection by Neu5Ac is compared to a control sugar, galactose.
The effectiveness of sialic acid (Neu5Ac or Neu5Gc) in preventing corona virus infection was evaluated in vitro in a model system. Different dilutions of the sialic acids were tested for their ability to inhibit infection of cells with the test virus CoV-OC43. FIGS. 1 and 2 provide data from two replicates showing infection of cells by CoV-OC43 at different concentrations of either Neu5Ac or Neu5Gc (Neu5Ac left hand bars, Neu5Gc right hand bars).

[2] = according to Schalcter (2017), cited from earlier work

## CC(=O)N[C@H]1[C@H]([C@H](O)[C@H](O)CO)OC(O)(C(=O)O)C[C@@H]1O (some centres unmarked) [Neu5Ac, N-acetyl neuraminic acid]
[1]; CoV-OC43, FIG. 3
  inhibition of infection compared to a control sugar, galactose: prevents infection as compared to the control
[1]
  infection of cells by CoV-OC43 at different concentrations: inhibited in a dose-dependent manner
[2]
  excretion via urine: quickly excreted via urine
[2]; after ingestion
  absorption after ingestion: rapidly absorbed

## O=C(CO)N[C@H]1[C@H]([C@H](O)[C@H](O)CO)OC(O)(C(=O)O)C[C@@H]1O (some centres unmarked) [Neu5Gc, N-glycolylneuraminic acid]
[1]
  infection of cells by CoV-OC43 at different concentrations: inhibited in a dose-dependent manner
